Experimental findings from patent US6313305A, “Cephalosporins” (Hoechst Marion Roussel, priority 1991, dated 2001) are described below.

The term MIC90 denotes an inhibitory concentration at the 90% level, which refers to growth in some studies and to a panel of isolates in others. A lower MIC90 goes with higher susceptibility.

The structures appear in SMILES notation. Values after ≈ are worked out from the molar mass of the structure shown. Where a name gives a salt, the structure may show the parent alone.

Assay type in all cases: cell-based
Assay [1] has as its system Enterobacteria producting β lactamase with enlarged spectrum (16 strains). Put plainly: In vitro activity, method of dilutions in solid medium (TABLE II): Enterobacteria producing β lactamase with enlarged spectrum. As to conditions: 24 h. How it is done:
(§1) In Vitro Activity, Method of Dilutions in Solid Medium
(§2) A series of dishes was prepared in which an equal amount of sterile nutritional medium was distributed containing increasing amounts of the test product. Then, each dish was seeded with several bacteria strains and after incubation in an oven for 24 hours at 37° C., the growth inhibition was evaluated by the absence of any bacterial development, which allowed the minimal inhibiting concentrations (M.I.C.) to be determined expressed in micrograms/ml. The results were expressed in M.I.C. 90 which is the minimum concentration of antibiotic allowing the growth of the strains studied to be inhibited by […] (TABLE II).

Assay [2] relates to oracillin-sensitive penicillin-resistants Staphylococci aureus (20 strains). Nature of the assay: In vitro activity, method of dilutions in solid medium (TABLE II): oracillin-sensitive penicillin-resistant Staphylococcus aureus. Conditions: 24 hours at 37° C. How it is done: as §1, §2
Assay [3] has as its system Enterobacteria producing cephalosporinases (20 strains). Nature of the assay: In vitro activity, method of dilutions in solid medium (TABLE II): Enterobacteria producing cephalosporinases. As to conditions: 24 h. How it is done: as §1, §2
For assay [4], the system named is Pseudomonas Aeruginosa (39 strains). Put plainly: In vitro activity, method of dilutions in solid medium (TABLE II): Pseudomonas aeruginosa. Conditions: 24 hours at 37° C. As to the method: as §1, §2

Turning to `Nc1nc(/C(=N/OC(C(=O)O)c2cc(F)c(O)c(O)c2F)C(=O)N[C@@H]2C(=O)N3C(C(=O)[O-])=C(/C=C/C[n+]4ccn5ccccc54)CS[C@H]23)cs1` (stereo partly drawn) [Example 39, Internal Salt of (6R-(3-(E) 6α, 7β(Z)))-1-(3-(7-(((2-Amino-4-thiazolyl)(carboxy-(2,5-difluoro-3,4-dihydroxyphenyl)-methoxy)-imino)-acetamido)-2-carboxy-8-oxo-5-thia-1-azabicyclo[4,2,0]oct-2-en-3-yl)-2-propenyl)-imidazo(1,2-a)pyridinium], the MIC90 is 2.5 µg/mL in assay [1], 2.5 µg/mL in assay [2], 0.3 µg/mL in assay [3] and 0.08 µg/mL in assay [4].
For `Nc1nc(/C(=N/OC(C(=O)O)c2cc(Cl)c(O)c(O)c2Cl)C(=O)N[C@@H]2C(=O)N3C(C(=O)[O-])=C(/C=C/C[n+]4cccc5c4CCC5)CS[C@H]23)cs1` (stereo partly drawn) [Example 27, Internal salt of (6R-(3-(E) 6α, 7β-(Z)))-1-(3-(7-(((2-amino-4-thiazolyl)-(carboxy-(2,5-dichloro-3,4-dihydroxy-phenyl)-methoxy)-imino)-acetamido)-2-carboxy-8-oxo-5-thia-1-azabicyclo[4,2,0]oct-2-en-3-yl)-2-propenyl)-6,7-dihydro-5H-pyrindinium], the MIC90 in assay [1] is 10 µg/mL; in assay [2], 5 µg/mL; in assay [3], 0.3 µg/mL; in assay [4], 0.08 µg/mL.
On to `COc1cc(C(O/N=C(\C(=O)N[C@@H]2C(=O)N3C(C(=O)[O-])=C(/C=C/C[n+]4cccc5ccccc54)CS[C@H]23)c2csc(N)n2)C(=O)O)c(Cl)c(O)c1O` (stereo partly drawn) [Example 43], for which the MIC90 in assay [1] was 1.2 µg/mL (≈ 1.56 µM); in assay [2], 0.3 µg/mL (≈ 0.391 µM); in assay [3] it was 2.5 µg/mL (≈ 3.26 µM); in assay [4], 1.2 µg/mL (≈ 1.56 µM).
